Reference: patent US12637662B2, “Cells, islets, and organoids that evade immune detection and autoimmunity, methods of production and use thereof” (SALK INSTITUTE FOR BIOLOGICAL STUDIES, priority 2018, dated 2026)
Entries after “also recorded” stand apart in the source; their conditions may differ.

Experiments:
[1] = tested on: human islet-like organoids; experiment: Amyloid polypeptide (hIAPP) toxicity in human islet-like organoids; type: cell-based; details: 24 hours
From the text: The generation of functional human organs according to methods described herein provides new strategies for drug-screening and disease modeling. Specifically, functional organoids can be used as models of type 2 diabetes for drug screening.

[2] = tested on: human iPSC derived cells (islet-like organoids, MCS, HILOs); experiment: Glucose-stimulated insulin/c-peptide secretion assay (GSIS, ELISA); type: cell-based; details: 3 mM vs 20 mM glucose
Protocol: Insulin release from intact islets was monitored using batch incubation methods as reported by E. Yoshihara et al., 2016, Cell metabolism, 23:622-634. Briefly, overnight-cultured, isolated pancreatic islets (RPMI-1640 medium supplemented with 10% (v/v) fetal bovine serum and 1% (v/v) Antibiotic-Antimycotic (Gibco)) were pre-cultured at 37° C. for 30 minutes in Krebs-Ringer bicarbonate buffer (KRBB) containing 129.4 mM NaCl, 3.7 mM KCl, 2.7 mM CaCl2), 1.3 mM KH2PO4, 1.3 mM MgSO4, 24.8 mM NaHCO3 (equilibrated with 5% CO2, 95% O2, pH 7.4), 10 mM HEPES and 0.2% (v/v) BSA (fraction V, Sigma) (KRBH) with 3 mM glucose). […] After 30 minutes, the islets were pelleted by centrifugation and secreted insulin levels were determined in the medium by Enzyme Linked Immunosorbent Assay (ELISA), (Rat/mouse Insulin ELISA KIT (Millipore) and Human Insulin ELISA KIT or ultrasensitive human c-peptide ELISA Kit (Millipore) for mouse and human islets, respectively). […] After 30 minutes, the cells were pelleted by centrifugation and c-peptide levels were determined in the supernatant medium using the human c-peptide ELISA KIT (Millipore). […]
Insulin release from intact islets was monitored using batch incubation methods (Yoshihara et al., 2010, Nat. Commun. 1:127). […] After 30 min, the cells were pelleted by centrifugation and c-peptide levels were determined by human c-peptide ELISA KIT (Millipore).

CD80 (B7-1) = target: T1, CD80 (B7-1) (Homo sapiens, UniProt P33681); details: cited from earlier work
T1 sequence (P33681 35-288): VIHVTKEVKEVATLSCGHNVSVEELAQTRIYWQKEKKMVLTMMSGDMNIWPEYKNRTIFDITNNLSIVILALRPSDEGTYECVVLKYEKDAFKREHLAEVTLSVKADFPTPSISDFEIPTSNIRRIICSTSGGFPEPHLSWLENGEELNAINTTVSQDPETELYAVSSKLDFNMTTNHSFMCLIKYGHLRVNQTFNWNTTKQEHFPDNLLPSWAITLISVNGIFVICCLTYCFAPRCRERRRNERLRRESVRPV

PD-1 = PD-1 (Homo sapiens, UniProt Q15116); details: read-out: Kd (dissociation constant), binding to PD-1; cited from earlier work
Sequence of PD-1 (Q15116 25-288): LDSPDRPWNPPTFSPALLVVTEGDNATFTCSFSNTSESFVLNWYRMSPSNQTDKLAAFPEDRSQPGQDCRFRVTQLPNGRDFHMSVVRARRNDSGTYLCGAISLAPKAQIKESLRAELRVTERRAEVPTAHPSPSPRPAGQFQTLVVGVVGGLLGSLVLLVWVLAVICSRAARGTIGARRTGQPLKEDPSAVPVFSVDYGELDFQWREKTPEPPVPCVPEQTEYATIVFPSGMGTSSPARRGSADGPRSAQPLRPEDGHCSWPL

CD86 (B7-2) = target: T2, CD86 (B7-2) (Homo sapiens, UniProt P42081); details: cited from earlier work
T2 sequence (P42081 24-329): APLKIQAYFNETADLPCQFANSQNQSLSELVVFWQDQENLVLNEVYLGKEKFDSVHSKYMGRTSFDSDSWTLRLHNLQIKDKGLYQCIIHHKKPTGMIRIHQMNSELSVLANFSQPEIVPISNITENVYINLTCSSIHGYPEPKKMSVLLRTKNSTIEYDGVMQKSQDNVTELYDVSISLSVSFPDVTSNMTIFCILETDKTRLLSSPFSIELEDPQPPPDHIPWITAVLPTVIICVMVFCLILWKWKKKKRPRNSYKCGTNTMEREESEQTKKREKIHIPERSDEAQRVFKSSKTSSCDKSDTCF

[3] = tested on: human islet-like organoids; experiment: Proinsulin-NanoLuc Gaussia luciferase insulin secretion assay in single or pooled islets/organoids; type: cell-based; details: pooled organoids (10 to 100 per assay)
From the text: Recent studies have reported the generation of insulin producing β-like cells from hESC and hiPSC capable of secreting insulin in response to glucose (Pagliuca et al., 2014, Cell, 159, 428-439; Rezania et al., 2014, Nature Biotechnology, 32(11):1121-33; Russ et al., 2015, FMBO Journal, 34:1759-1772). […] To date, efforts have focused on the independent generation of insulin producing β-like cells, glucagon producing α-like cells, and somatostatin producing 6-like cells from hPSC. However, these approaches lack the supporting cells important for regulation, such as mesenchymal cells, adipose cells, and vasculature cells. Since the 3D structure of islets naturally enhances their function, these missing cellular components may compromise the functionality of islet-like cells clusters. […] To test this idea, single organoid proinsulin secretion assays were performed. Human islet-like organoids generated by methods described herein are morphologically identical with human islet.
Mouse islets, human islets and human islets like organoids were plated in their respective growth media with 10 μg/ml Polybrene® polymer (Santacruz). Viruses were then added. After overnight culture, cells were placed in fresh growth media. […]

INS-1 cells = experiment: Proinsulin-NanoLuc Gaussia luciferase insulin secretion assay in INS-1 cells; type: cell-based, rat; details: 20 mM glucose with Exendin-4
Protocol: It was previously published that a reporter construct, in which the Gaussia luciferase is placed within the c-peptide portion of proinsulin accurately measures insulin secretion without affecting β-cell function (Burns et al., 2015, Cell metabolism, 21, 126-137). Using a lentiviral system, INS-1 cells stably expressing this Gaussia luciferase were generated. Luciferase secretion from INS-1 cells stably expressing Proinsulin-NanoLuc increased with high-glucose (20 mM), high glucose with Exendin-4 (G20 mM+Ex4), and the depolarizing agent, potassium chloride, confirming the utility of this reporter system. Next, the usefulness of this reporter to measure insulin secretion in mouse or human islets transiently infected with the Proinsulin-NanoLuc reporter was evaluated. Luciferase secretion in response to 20 mM high glucose was detected in both transiently infected mouse and human islets were detected. Importantly, the assay sensitivity was sufficient that insulin secretion could be qualified at the level of single islets. […] (See, e.g., WO 2017/205511). […]

[4] = tested on: chromatin accessibility in HILO cells; experiment: ATAC-Seq chromatin accessibility in HILOs; type: cell-based, human
From the text: […] D. Buenrostro et al., 2015, Current Protocols in Molecular Biology, 109:21-29. Reads were aligned by Bowtie to hg19, and peaks were called by HOMER using default settings. Differential peaks and motif analyses from 2 biological duplicates were identified using HOMER essentially as instructed (see, e.g., S. Heinz et al., 2010, J. Mol. Cell, 38:576-589). Detailed methods for HOMER are freely available, e.g., at http://http://homer.salk.edu/homer/. Briefly, the program searches against the target and background sequences for enrichment of known motifs, and returns motifs enriched with a threshold of 1.5-fold change and a p-value of less than 0.05. Promoter regions, defined as 1 kilobase (kB) upstream from the transcription start site, of genes with enhanced chromatin accessibility upon Wnt4 treatment, were interrogated for enriched motifs of 8-16 bp using HOMER motif analysis.

[5] = tested on: PD-L1 expression in human islets; experiment: PD-L1 induction by IFNγ in human islets; type: cell-based; details: 12 hours after IFNγ treatment (FIG. 12F)
[6] = tested on: PD-L1 expression in wHILOs; experiment: PD-L1 induction by IFNγ in wHILOs; type: cell-based, human
Protocol: For acute treatment, wHILOs were treated with 10 ng/ml IFNγ in the differentiation medium (S5 with 10 μM Trolox, 2 μM R428, 1 mM N-acetyl cysteine, 10 μM Alk5 inhibitor II, 1 μM T3 and 100 ng/ml rhWnt4 (recombinant human Wnt4)) for 2 hours. Cells were then washed twice with PBS prior to culturing in differentiation medium (S5 with 10 μM Trolox, 2 μM R428, 1 mM N-acetyl cysteine, 10 μM Alk5 inhibitor II, 1 μM T3 and 100 ng/ml rhWnt4) (single pulse stimulation). IFNγ exposure was repeated 3 times with washing and 24 hours resting time in differentiation medium (S5 with 10 μM Trolox, 2 μM R428, 1 mM N-acetyl cysteine, 10 μM Alk5 inhibitor II, 1 μM T3 and 100 ng/ml rhWnt4) between each IFNγ exposure (MPS stimulation) to generate wHILO^ie. After the final IFNγ pulse, cells were cultured in the tissue culture incubator for a week prior to the RNA-seq analyses (FIGS. 14A-14C), ATAC-seq analyses (FIG. 14D) and transplantation into STZ-induced diabetic C57BL6J mice (FIG. 5J) or humanized mice (FIG. 15B).
Total RNA was extracted using TRIzol reagent (Invitrogen) and RNeasy KIT (Qiagen). Reverse transcription was performed with a SuperScript III First-Strand Synthesis System kit (Invitrogen) or PrimeScript RT reagent kit (TAKARA). Real time quantitative RT-PCR (qPCR) was performed using SYBR Green (Bio-Rad).

Which cell cycle arrest [1] does the source give for “hIAPP: amyloid polypeptide, an inducer of β cell loss in type 2 diabetic patients (KCNTATCATQRLANFLVHSSNNFGAILSSTNVGSNTY; Islet amyloid polypeptide; UniProt P10997 34-70, looked up)” here?
The cell cycle arrest was “dose-dependently induced G0/G1 arrest”.

Which “glucose-stimulated insulin (c-peptide) secretion in vitro” value [2] does the source give for `Oc1nc(-c2ccc(C(F)(F)F)cc2)nc2c1CSCC2` [XAV939, reference compound] here?
Its value is “not blocked”.

For “PD-L2: related molecule that shares PD-1 as a receptor”, which “affinity for CD80 (in words)” value (CD80 (B7-1)) is on record?
Its value is “does not have affinity”.

And the Kd (PD-1)?
The Kd was 140 nM.

And the “affinity for CD86 (in words)” value (CD86 (B7-2))?
Its value is “does not have affinity”.

For “GLP-1: incretin used for co-stimulation of insulin secretion”, which “GSIS by proinsulin luciferase secretion assay” value [3] is on record?
Its value is “enhanced GSIS”.

For Exendin-4, which “luciferase secretion (insulin secretion reporter)” value (INS-1 cells) is on record?
The value was “increased”.

Which results are given for “IFNγ: recombinant human IFNγ (R&D Systems, 285-IF) used to induce PD-L1 expression”?
chromatin accessibility at PD-L1, IRF9, JUNB, JUND loci ([4]; after MPS IFNγ treatment): persistent increases; chromatin accessibility at IRF1, STAT1 ([4]; after acute (12 h) IFNγ treatment): not sustained; increase in PD-L1 expression [5]: approximately 20 fold; GSIS functionality after MPS IFNγ ([2]; wHILOs): not compromised; duration of sustained PD-L1 expression after MPS ([6]; at least 3 pulses, 10 ng/ml, 2 hours per pulse): at least 7 days; PD-L1 expression after repeated short IFNγ exposures (MPS) (in words) ([6]; multiple pulse stimulation): high levels of PD-L1 protein expression; also recorded: sustained PD-L1 expression; PD-L1 induction after single IFNγ exposure (in words) ([6]; single / acute exposure): rapidly and robustly induced; also recorded: maximum PD-L1 induction; also recorded: transient
